Reference: US20060216718A1, “Method and system for estimating gene expression data” (priority 2005, published 2006)

Tested on: gene expression
Experiment: Differential gene expression by microarray, linear multi-factor model (FIG. 3)
Type: in vivo, rats
Details: in both males and females, relative to baseline treatment combination (males who received corn oil)
Procedure: Returning to FIG. 1, the gene expression data 14 thus acquired and, typically, background-corrected, transformed, normalized, and/or otherwise conditioned, is analyzed at step 16 without aggregating or summarizing the readings of the multiple probes from each gene, and with simultaneous assessment of the effects of all the experimental factors. For example, a linear, multi-factor model is used in one embodiment to achieve this. The linear, multi-factor model explicitly accounts for differences in expression between genes, between probes from the same gene, and between the effects of experimental factors (which in one embodiment are gender of the experimental animals, and chemical substance they have been exposed to). The effects of the experimental factors on gene expression are estimated simultaneously, rather than one-at-a-time. In this way, the analysis corresponds to the experimental design, where the factor levels are varied together and simultaneously, rather than one at a time, this enabling the assessment of possible, non-linear interactions between experimental factors. In one example, the linear model is of the form Yijnk=γn+τkn+σln+(τσ)kln+επjn+εijkln […]

Compound: Clc1cc2c(cc1Cl)Oc1cc(Cl)c(Cl)cc1O2 [TCDD]
- differential gene expression (fold increase) of the genes denoted by reference number 40: about 40 fold
